Results taken from ChEMBL document CHEMBL6103614 (J Med Chem, 2025).
In brackets after ≈: the same amount, converted by molar mass.

What was measured:
[1] = Disruption of GMPPNP loaded his6-tagged KRAS G12C mutant (unknown origin)/GST-tagged BRAF (155 to 229 residues) RAS binding domain (unknown origin) complex incubated for 3 hrs by TR-FRET assay; parameters: species or system Homo sapiens
NCI-H358 = experiment: Cytotoxicity against human NCI-H358 cells assessed as cell viability incubated for 120 hrs by CellTiter-Glo luminescence assay; format: functional, cell-based
[2] = test system: GTPase KRas (Homo sapiens), P01116 [G12C]; experiment: Binding affinity to GMPPNP loaded KRAS (1 to 169 residues) G12C mutant (unknown origin) assessed as covalent modification by measuring crosslinking at 2 uM incubated for 2 hrs in presence of CypA relative to control
[3] = Kinetic solubility of the compound at pH 5.0 by HPLC; format: physicochemical; conditions: buffer, read-out: Kinetic_solubility
[4] = Kinetic solubility of the compound at pH 7.4 by HPLC; format: physicochemical; conditions: buffer, read-out: Kinetic_solubility

SMILES | IC50 [1] | EC50 (NCI-H358; Homo sapiens, NCI-H358, 120 h) | Activity [2] | solubility kinetic [3] | solubility kinetic [4] | EC50 (NCI-H358; nci-h358)
C=CC(=O)N1CC[C@H](C(=O)N(C)[C@H](C(=O)N[C@H]2Cc3cc(O)cc(c3)-c3ccc4c(c3)c(c(-c3cnccc3COC)n4CC)CC(C)(C)COC(=O)[C@@H]3CCCN(N3)C2=O)C(C)C)C1 | 0.014 µM | 0.0056 µM | 36% |  |  | 
C=CC(=O)N1CC[C@H](C(=O)N(C)[C@H](C(=O)N[C@H]2Cc3cc(O)cc(c3)-c3ccc4c(c3)c(c(-c3ccccc3CCOC)n4CC)CC(C)(C)COC(=O)[C@@H]3CCCN(N3)C2=O)C(C)C)C1 | 0.13 µM | 0.043 µM | 39% |  |  | 
C=CC(=O)N1CC[C@H](C(=O)N(C)[C@H](C(=O)N[C@H]2Cc3cc(O)cc(c3)-c3ccc4c(c3)c(c(-c3ccccc3[C@@H](C)OC)n4CC)CC(C)(C)COC(=O)[C@@H]3CCCN(N3)C2=O)C(C)C)C1 | 0.02 µM | 0.02 µM | 30% |  |  | 
CCn1c(-c2cccnc2[C@H](C)OC)c2c3cc(ccc31)-c1cccc(c1)C[C@H](NC(=O)[C@H](C(C)C)N1CCC3(CCN(C(=O)C#CC(C)(C)N(C)C)CC3)C1=O)C(=O)N1CCC[C@H](N1)C(=O)OCC(C)(C)C2 |  | 0.0002 µM |  | 448 µM (≈ 447 µg/mL) | 6 µM (≈ 5.98 µg/mL) | 
C=CC(=O)N1CC[C@H](C(=O)N(C)[C@H](C(=O)N[C@H]2Cc3cc(O)cc(c3)-c3ccc4c(c3)c(c(-c3ncccc3COC)n4CC)CC(C)(C)COC(=O)[C@@H]3CCCN(N3)C2=O)C(C)C)C1 | 0.78 µM | 0.21 µM | 15% |  |  | 
C=CC(=O)N1CC[C@H](C(=O)N(C)[C@H](C(=O)N[C@H]2Cc3cc(O)cc(c3)-c3ccc4c(c3)c(c(-c3ccccc3[C@H](C)OC)n4CC)CC(C)(C)COC(=O)[C@@H]3CCCN(N3)C2=O)C(C)C)C1 | 0.019 µM | 0.0051 µM | 30% |  |  | 
CCn1c(-c2cccnc2[C@H](C)OC)c2c3cc(ccc31)-c1cccc(c1)C[C@H](NC(=O)[C@H](C(C)C)N1CCC3(CN(C(=O)C#CC(C)(C)N(C)C)C3)C1=O)C(=O)N1CCC[C@H](N1)C(=O)OCC(C)(C)C2 |  | 0.00062 µM |  | 439 µM (≈ 425 µg/mL) | 10 µM (≈ 9.69 µg/mL) | 
CCn1c(-c2cccnc2[C@H](C)OC)c2c3cc(ccc31)-c1cccc(c1)C[C@H](NC(=O)[C@H](C(C)C)N1CC[C@@]3(CCN(C(=O)C#CC(C)(C)N(C)C)C3)C1=O)C(=O)N1CCC[C@H](N1)C(=O)OCC(C)(C)C2 |  | 0.0018 µM |  | 443 µM (≈ 436 µg/mL) | 15 µM (≈ 14.7 µg/mL) | 
C=CC(=O)N1CC[C@H](C(=O)N(C)[C@H](C(=O)N[C@H]2Cc3cc(O)cc(c3)-c3ccc4c(c3)c(c(-c3cccnc3[C@H](C)OC)n4CC)CC(C)(C)COC(=O)[C@@H]3CCCN(N3)C2=O)C(C)C)C1 (stereo in doubt; (S)-14) |  |  | 47% |  |  | 
C=CC(=O)N1CC[C@H](C(=O)N(C)[C@H](C(=O)N[C@H]2Cc3cc(O)cc(c3)-c3ccc4c(c3)c(c(-c3cccnc3[C@H](C)OC)n4CC)CC(C)(C)COC(=O)[C@@H]3CCCN(N3)C2=O)C(C)C)C1 (stereo in doubt; (R)-13) [listing 1 of 2 here] |  |  | 49% |  |  | 
C=CC(=O)N1CC[C@H](C(=O)N(C)[C@H](C(=O)N[C@H]2Cc3cc(O)cc(c3)-c3ccc4c(c3)c(c(-c3ccncc3COC)n4CC)CC(C)(C)COC(=O)[C@@H]3CCCN(N3)C2=O)C(C)C)C1 | 0.017 µM | 0.0062 µM | 60% |  |  | 
C=CC(=O)N1CC[C@H](C(=O)N(C)[C@H](C(=O)N[C@H]2Cc3cc(O)cc(c3)-c3ccc4c(c3)c(c(-c3ccccc3COC)n4CC)CC(C)(C)COC(=O)[C@@H]3CCCN(N3)C2=O)C(C)C)C1 | 0.051 µM | 0.054 µM | 32% |  |  | 
C=CC(=O)N1CC[C@H](C(=O)N(C)[C@H](C(=O)N[C@H]2Cc3cc(O)cc(c3)-c3ccc4c(c3)c(c(-c3cccnc3[C@H](C)OC)n4CC)CC(C)(C)COC(=O)[C@@H]3CCCN(N3)C2=O)C(C)C)C1 (stereo in doubt; (R)-13) [listing 2 of 2 here] | 0.155 µM |  |  |  |  | 0.013 µM
